Laboratory results published in US8338420B1, “Treatment of Parkinson's disease and enhancement of dopamine signal using PDE 10 inhibitor” (Mitsubishi Tanabe Pharma Corporation, priority 2002, dated 2012).

Biological target: T1, PDE6 (Bos taurus, UniProt P11541+P23439)
T1 construct: tissue Tokyo Shibaura Zoki; host or cells: bovine retina, rod outer segments, gel filtration, then limited trypsin treatment
T1 sequence (P11541 2-856 limits assumed): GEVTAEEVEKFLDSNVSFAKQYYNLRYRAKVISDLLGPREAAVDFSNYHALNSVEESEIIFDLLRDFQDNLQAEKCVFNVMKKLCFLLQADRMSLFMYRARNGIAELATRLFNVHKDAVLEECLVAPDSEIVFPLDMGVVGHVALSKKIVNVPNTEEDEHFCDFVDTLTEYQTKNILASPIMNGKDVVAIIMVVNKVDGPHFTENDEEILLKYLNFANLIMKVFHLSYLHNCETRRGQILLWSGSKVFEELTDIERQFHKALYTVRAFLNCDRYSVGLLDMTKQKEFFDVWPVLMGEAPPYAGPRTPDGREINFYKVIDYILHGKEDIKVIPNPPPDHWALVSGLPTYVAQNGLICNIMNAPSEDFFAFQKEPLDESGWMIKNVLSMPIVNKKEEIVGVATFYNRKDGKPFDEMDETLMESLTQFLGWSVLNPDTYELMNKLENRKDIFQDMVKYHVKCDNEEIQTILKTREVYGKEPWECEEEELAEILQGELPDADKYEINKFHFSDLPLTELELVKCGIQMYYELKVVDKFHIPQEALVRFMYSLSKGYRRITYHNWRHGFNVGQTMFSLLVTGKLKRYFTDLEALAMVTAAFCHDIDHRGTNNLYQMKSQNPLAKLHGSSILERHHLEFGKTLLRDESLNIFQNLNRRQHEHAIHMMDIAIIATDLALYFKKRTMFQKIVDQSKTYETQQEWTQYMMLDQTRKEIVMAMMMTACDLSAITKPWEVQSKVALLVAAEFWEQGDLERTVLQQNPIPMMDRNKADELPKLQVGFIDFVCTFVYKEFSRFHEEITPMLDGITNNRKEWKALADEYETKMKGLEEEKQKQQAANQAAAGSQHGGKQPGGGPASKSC
T1 sequence (P23439 2-850 limits assumed): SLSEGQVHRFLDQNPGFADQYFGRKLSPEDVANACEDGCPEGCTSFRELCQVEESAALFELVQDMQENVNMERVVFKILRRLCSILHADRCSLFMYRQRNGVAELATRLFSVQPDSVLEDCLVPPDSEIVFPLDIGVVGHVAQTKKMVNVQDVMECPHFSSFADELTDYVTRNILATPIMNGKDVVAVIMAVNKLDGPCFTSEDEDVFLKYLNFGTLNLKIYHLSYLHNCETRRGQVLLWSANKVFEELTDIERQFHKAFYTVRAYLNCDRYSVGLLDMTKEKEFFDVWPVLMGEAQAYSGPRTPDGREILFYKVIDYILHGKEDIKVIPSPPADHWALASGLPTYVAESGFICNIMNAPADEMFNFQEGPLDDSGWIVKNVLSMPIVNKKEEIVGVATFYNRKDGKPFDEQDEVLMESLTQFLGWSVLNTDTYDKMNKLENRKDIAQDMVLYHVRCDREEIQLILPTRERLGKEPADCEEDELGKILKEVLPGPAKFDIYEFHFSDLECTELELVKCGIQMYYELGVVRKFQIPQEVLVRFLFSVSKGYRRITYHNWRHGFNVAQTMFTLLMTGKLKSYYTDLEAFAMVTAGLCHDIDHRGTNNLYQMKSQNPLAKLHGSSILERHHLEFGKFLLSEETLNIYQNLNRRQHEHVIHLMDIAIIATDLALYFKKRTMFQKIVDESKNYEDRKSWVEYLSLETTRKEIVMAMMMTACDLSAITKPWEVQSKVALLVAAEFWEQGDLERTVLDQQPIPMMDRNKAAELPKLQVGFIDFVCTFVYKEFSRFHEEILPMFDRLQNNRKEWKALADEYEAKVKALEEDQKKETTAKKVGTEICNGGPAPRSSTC
Assay: PDE assay, trypsin-activated PDE6 from bovine retina
Format: biochemical
Conditions: substrate about 12 nM [3H]-cGMP and 10 μM cGMP
Procedure: From the bovine eyeball, purchased from Tokyo Shibaura Zoki, co., Ltd., retina (pale red colored) which is present as a membrane on the pigmented layer was collected and stored at −70° C.
To buffer A [16 mM MOPS-NaOH, pH7.5, 1.6 mM dithiothreitol, 8 mM magnesium chloride, 96 mM potassium chloride, 48 mM sodium chloride, 0.16 mM phenylmethylsulfonyl fluoride, 10 μM pepstatin A, 10 μM leupeptin] (20 ml), sucrose (6 g) was dissolved. Added thereto was the above-mentioned retina (about 7 g), and the mixture was stirred for 30 minutes while cutting the retina by scissors. The mixture was applied to centrifugation at 2000 rpm, at 4° C. for 5 minutes and the supernatant was collected. To the resultant residue was added buffer B[10 mM MOPS, pH7.5, 1 mM dithiothreitol, 5 mM magnesium chloride, 60 mM potassium chloride, 30 mM sodium chloride, 0.1 mM phenylmethylsulfonyl fluoride, 10 μM pepstatin A, 10 μM leupeptin] (40 ml), and the mixture was stirred by rolling several times. This was applied to centrifugation and the resultant supernatant was combined with the above obtained supernatant. This is further centrifuged at 7000 rpm, at 4° C., for 5 minutes, and the precipitates were obtained as crude rod outer segment (ROS). […]
Further, PDE assay was carried out using the above-eluted fractions as an enzyme solution, and cGMP-hydrolyzing activity was measured. […]

COc1ccc(-c2cc(N3CCCC3)nc(/C=C/c3nc(-n4ccnc4)c4ccccc4n3)n2)cc1OC [Compound A, 2-{(E)-2-[4-(1-imidazolyl)-quinazolin-2-yl]}ethenyl-4-(3,4-dimethoxy)phenyl-6-(pyrrolidin-1-yl)pyrimidine]
IC50: 290 nM
